One assay concerns the target human p38α MAPK (Homo sapiens (Human), UniProt Q16539). Description: Kinase assay, concentration dependent inhibition of p38α MAPK. As to conditions: for Ki: kinetic analyses. The assay is classed as biochemical.
Assay [1] has as its system APP/PS1 mice. The assay is described as follows: LTP in APP/PS1 mice. The assay is classed as in vivo, mouse. As to conditions: 2.5 mg/kg, daily, p.o., from 2 months until 3-4 months of age.
The test system of assay [2] is APP/PS1 mice. The assay is described as follows: RAWM in APP/PS1 mice. As to conditions: 2.5 mg/kg, daily, p.o., from 2 months of age.
Assay [3] concerns APP/PS1 mice. The assay is described as follows: Fear conditioning (contextual and cued) in APP/PS1 mice. As to conditions: 2.5 mg/kg, daily, p.o., from 2 months of age.
A further assay concerns the target CK-1δ (Homo sapiens (Human), UniProt P48730). The assay is described as follows: Kinase assay, concentration dependent inhibition of CK-1δ.
The next assay concerns panel of 158 GPCRs. The assay is described as follows: Millipore GPCR Profiler cell-based functional screen (calcium flux FLIPR). From the text:
Compounds were screened in vivo using a standard dose escalation screen in mice coupled with clinical observation and testing based on the SHIRPA mouse phenotype assay paradigm (Mammalian Genome 8, 711-719 SHIRPA (1997); herein incorporated by reference in its entirety). To obtain insight into the potential for off-target activity with the largest known family of small molecule drug targets, G-protein coupled receptors (GPCRs), a cell-based functional screen of the final title compounds was done. The Millipore® GPCR Profiler screen employs the ChemiScreen GPCR stable cell line technology used for real-time calcium flux FLIPR assays on a panel of 158 GPCRs. The NCBI Entrez identifier for each GPCR is provided at the vendor site (www.millipore.com). Follow-up validation of any initial hits as being true positives or negatives was done as described above for protein kinases by testing the concentration dependence of any cellular effects.
For orientation: Calcium assays in cells follow changes in intracellular calcium, usually with a dye or a luminescent sensor.

The subject of assay [4] is murine microglial BV-2 cell line. The assay is described as follows: cells. The class given is cell-based. As to conditions: for IL-1β production with diverse TLR ligands: BV-2 cells, TLR2, TLR4, TLR7/8, TLR9 ligands.
The subject of assay [5] is LPS-induced IL-1β in brain cortex. Description: In vivo LPS-induced brain cortex IL-1β. Further details: species or system mouse. As to conditions: oral administration, 20 mg/Kg, 6 hrs after LPS.
Assay [6] relates to Aβ42-treated hippocampal slices. The assay is described as follows: LTP in hippocampal slices treated with oligomeric Aβ42. Further details: species or system mouse. As to conditions: 10 μM, 200 nM Aβ42.
Assay [7] deals with Aβ42-infused mice. Description: 2-day radial arm water maze (RAWM) in Aβ42-infused mice. The class given is in vivo, mouse. As to conditions: 5 mg/Kg, i.p.
Assay [8] has as its system Aβ42-infused mice. The assay is described as follows: Contextual fear conditioning in Aβ42-infused mice. As to conditions: 5 mg/Kg, i.p. The assay is classed as in vivo, mouse.
The subject of another assay is >291 protein kinases. The assay is described as follows: Millipore Profiler large-scale kinome screen.

Read-outs that look alike come from different tables or passages of the source.

Sequence of CK-1δ (P48730 whole entry): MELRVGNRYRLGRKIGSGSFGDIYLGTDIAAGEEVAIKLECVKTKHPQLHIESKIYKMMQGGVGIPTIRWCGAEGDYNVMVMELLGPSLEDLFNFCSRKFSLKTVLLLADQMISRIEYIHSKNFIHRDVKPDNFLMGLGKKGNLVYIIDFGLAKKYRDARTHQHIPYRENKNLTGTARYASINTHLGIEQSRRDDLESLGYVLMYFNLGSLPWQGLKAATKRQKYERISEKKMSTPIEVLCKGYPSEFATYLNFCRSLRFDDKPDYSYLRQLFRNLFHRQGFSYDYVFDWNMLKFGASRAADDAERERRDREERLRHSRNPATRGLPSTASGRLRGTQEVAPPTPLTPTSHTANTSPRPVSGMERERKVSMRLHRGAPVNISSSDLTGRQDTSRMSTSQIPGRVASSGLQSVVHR
Sequence of human p38α MAPK (Q16539 whole entry): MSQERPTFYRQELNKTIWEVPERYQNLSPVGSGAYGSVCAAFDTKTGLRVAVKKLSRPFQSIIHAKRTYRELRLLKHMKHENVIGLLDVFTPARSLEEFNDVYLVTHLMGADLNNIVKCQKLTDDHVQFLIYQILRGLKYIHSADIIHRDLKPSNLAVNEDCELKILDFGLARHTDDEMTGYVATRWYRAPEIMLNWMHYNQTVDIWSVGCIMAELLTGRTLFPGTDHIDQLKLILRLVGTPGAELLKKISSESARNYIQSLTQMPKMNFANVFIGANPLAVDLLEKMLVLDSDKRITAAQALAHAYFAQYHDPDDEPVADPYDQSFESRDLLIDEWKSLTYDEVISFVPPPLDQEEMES

The term IC50 denotes the midpoint of a concentration-inhibition curve. The term Ki denotes a measure of affinity in units of concentration, obtained from inhibition or displacement. Lower therefore signals a stronger hold on the target. For `c1ccc2c(-c3nnc(C4CC4)cc3-c3ccncc3)cccc2c1` [7 (MW-077), 6-cyclopropyl-3-(naphthalen-1-yl)-4-(pyridin-4-yl)pyridazine], on human p38α MAPK, inhibition was half-maximal at 419 nM (IC50) and the Ki was 186 nM. For the same compound, the “LTP defect in APP/PS1 mice” value with APP/PS1 mice [1] was “rescue defects in LTP”. Also, the “spatial/reference memory defect (RAWM) in APP/PS1 mice” value with APP/PS1 mice [2] is recorded as “rescue defects in spatial memory”. The “contextual fear memory defect in APP/PS1 mice” value in the assay with APP/PS1 mice [3] was “rescue the defect in contextual fear learning”. Further, the IC50 at CK-1δ (read-out: Ck1δ IC50) was over 10000 nM.

For `c1ccc2cc(-c3nnc(C4CC4)cc3-c3ccncc3)ccc2c1` [9 (MW-125), 6-Cyclopropyl-4-(pyridin-4-yl)-3-(naphthalen-2-yl)pyridazine], the half-maximal inhibitory concentration (IC50) was 412 nM against human p38α MAPK and over 10000 nM on CK-1δ (read-out: Ck1δ IC50). The inhibitory constant (Ki) on human p38α MAPK came out at 127 nM. The “LTP defect in APP/PS1 mice” value in the assay on APP/PS1 mice [1] is “rescue defects in LTP”. Further, the “spatial/reference memory defect (RAWM) in APP/PS1 mice” value in the assay on APP/PS1 mice [2] is on record as “rescue defects in spatial memory”. Moreover, in the assay on APP/PS1 mice [3], the “contextual fear memory defect in APP/PS1 mice” value was “rescue the defect in contextual fear learning”.

Take `CCN(CC)c1cc(-c2ccncc2)c(-c2cccc3ccccc23)nn1` [23 (MW-033), N,N-diethyl-6-(naphthalen-1-yl)-5-(pyridin-4-yl)pyridazin-3-amine]: the concentration for half-maximal inhibition (IC50) against human p38α MAPK is 162 nM; on CK-1δ (read-out: Ck1δ IC50), over 10000 nM.

In the case of `CCCN(C)c1cc(-c2ccncc2)c(-c2cccc3ccccc23)nn1` [24 (MW-010), N-methyl-6-(naphthalen-1-yl)-N-propyl-5-(pyridin-4-yl)pyridazin-3-amine], the half-inhibitory concentration (IC50) at human p38α MAPK was 188 nM; against CK-1δ, over 10000 nM.

On to `CC(C)Nc1cc(-c2ccncc2)c(-c2cccc3ccccc23)nn1` [25 (MW-031), N-isopropyl-6-(naphthalen-1-yl)-5-(pyridin-4-yl)pyridazin-3-amine], for which the figures for the half-inhibitory concentration (IC50) at human p38α MAPK and at CK-1δ (read-out: Ck1δ IC50) were 162 nM and over 10000 nM, respectively.

Regarding `CC(C)Nc1cc(-c2ccncc2)c(-c2ccc3ccccc3c2)nn1` [26 (MW-025), N-isopropyl-6-(naphthalen-2-yl)-5-(pyridin-4-yl)pyridazin-3-amine], the values for the IC50 at human p38α MAPK and at CK-1δ (read-out: Ck1δ IC50) were 130 nM and 2620 nM, respectively.

Consider `CN1CCN(c2cc(-c3ccncc3)c(-c3cccc4[nH]ccc34)nn2)CC1` [29 (MW-108), 4-(6-(4-methylpiperazin-1-yl)-4-(pyridin-4-yl)pyridazin-3-yl)-1H-indole], for which the results for the IC50 against human p38α MAPK and at CK-1δ (read-out: Ck1δ IC50) were 3070 nM and 6130 nM, respectively.

On to `c1cc(-c2nnc(N3CCNCC3)cc2-c2ccncc2)c2cc[nH]c2c1` [30 (MW-126), 4-(6-(piperazin-1-yl)-4-(pyridin-4-yl)pyridazin-3-yl)-1H-indole], for which the IC50 on human p38α MAPK was 753 nM; on CK-1δ (read-out: Ck1δ IC50) it was 2630 nM.

At human p38α MAPK, `CN1CCC(c2cc(-c3ccncc3)c(-c3ccc4ccccc4c3)nn2)CC1` [36 (MW-164), 6-(1-methylpiperidin-4-yl)-3-(naphthalen-2-yl)-4-(pyridin-4-yl)pyridazine] came in with an IC50 of 224 nM and a Ki of 101 nM. The compound also had an IC50 at CK-1δ of 11200 nM.

Turning to `CN1CCN(c2cc(-c3ccncc3F)c(-c3ccc4ccccc4c3)nn2)CC1` [37 (MW-149), 4-(3-fluoropyridin-4-yl)-6-(4-methylpiperazin-1-yl)-3-(naphthalen-2-yl)pyridazine], the IC50 against human p38α MAPK was 235 nM; on CK-1δ (read-out: Ck1δ IC50), 4620 nM.

In the case of `CN(C)c1cnc(-c2cccc3ccccc23)c(-c2ccncc2)n1` [44 (MW-064), N,N-dimethyl-5-(naphthalen-1-yl)-6-(pyridin-4-yl)pyrazin-2-amine], at human p38α MAPK, the concentration for half-maximal inhibition (IC50) was 456 nM and the Ki is 343 nM. Further, the IC50 on CK-1δ (read-out: Ck1δ IC50) was over 10000 nM.

Take `CN1CCN(c2cc(-c3ccncc3)c(-c3ccc4ccc(F)cc4c3)nn2)CC1` [50 (MW-017), 3-(7-Fluoronaphthalen-2-yl)-6-(4-methylpiperazin-1-yl)-4-(pyridin-4-yl)pyridazine]: the IC50 against human p38α MAPK came out at 974 nM; at CK-1δ (read-out: Ck1δ IC50) it was 16800 nM.

On to `CN1CCN(c2cc(-c3ccncc3)c(-c3ccc4cccc(F)c4c3)nn2)CC1` [52 (MW-032), 3-(8-Fluoronaphthalen-2-yl)-6-(4-methylpiperazin-1-yl)-4-(pyridin-4-yl)pyridazine], for which the IC50 turned out to be 735 nM on human p38α MAPK and 17900 nM on CK-1δ (read-out: Ck1δ IC50).

For `CN1CCN(c2cc(-c3ccncc3)c(-c3cc(F)cc4ccccc34)nn2)CC1` [53 (MW-059), 3-(3-fluoronaphthalen-1-yl)-6-(4-methylpiperazin-1-yl)-4-(pyridin-4-yl)pyridazine], the IC50 against human p38α MAPK was over 20000 nM; on CK-1δ (read-out: Ck1δ IC50) it was 119000 nM.

On to `CN1CCN(c2cc(-c3ccncc3)c(-c3cccc4cc(F)ccc34)nn2)CC1` [54 (MW-197), 3-(6-fluoronaphthalen-1-yl)-6-(4-methylpiperazin-1-yl)-4-(pyridin-4-yl)pyridazine], for which the half-inhibitory concentration (IC50) on human p38α MAPK was 669 nM; on CK-1δ (read-out: Ck1δ IC50) it was 136000 nM.

For the compound `CN1CCN(c2cc(-c3ccncc3)c(-c3cccc4c(F)cccc34)nn2)CC1` [55 (MW-063), 3-(5-fluoronaphthalen-1-yl)-6-(4-methylpiperazin-1-yl)-4-(pyridin-4-yl)pyridazine], the IC50 was found to be 526 nM against human p38α MAPK and 32500 nM on CK-1δ (read-out: Ck1δ IC50).

With `CCN1CCN(c2cc(-c3ccncc3)c(-c3ccc4ccccc4c3)nn2)CC1` [62 (MW-026), 6-(4-ethylpiperazin-1-yl)-3-(naphthalen-2-yl)-4-(pyridin-4-yl)pyridazine], the half-inhibitory concentration (IC50) amounted to 520 nM on human p38α MAPK and 4990 nM at CK-1δ (read-out: Ck1δ IC50).

With `CN(C)c1cc(-c2ccncc2)c(-c2ccc3ccccc3c2)nn1` [MW-108 (2)], in the assay with panel of 158 GPCRs, the GPCR screen result is recorded as “negative”. For the same compound, the “IL-1β production with diverse TLR ligands” value in [4] is “also seen in BV-2 cells stimulated with diverse TLR ligands”. In addition, the 50% inhibitory concentration (IC50) in assay [4] (Mus musculus, LPS-stimulated BV-2 cells, 18 hrs, read-out: IC50 using inhibition of IL-1β overproduction as end point) turned out to be 610 ± 20 nM. Also, in assay [5], the “LPS-induced IL-1β levels in brain cortex” value was “restored IL-1β levels in the brain cortex back towards control”. Also, in assay [6], the “LTP deficit in Aβ42-treated slices” value is recorded as “ameliorated the Aβ-induced electrophysiological deficit”. Further, the “reference memory deficit (RAWM) in Aβ42-infused mice” value with Aβ42-infused mice [7] is given as “rescued the memory defects”. Besides, in the assay on Aβ42-infused mice [8], the “contextual fear memory deficit in Aβ42-infused mice” value is on record as “prevented by MW-108 (2) administration”. In the assay on >291 protein kinases, the “large scale kinase screen result” value is “negative”.

Consider `CN(C)c1cc(-c2ccncc2)c(-c2cccc3ccccc23)nn1` [MW-181 (1)], for which, in [4], the “IL-1β production with diverse TLR ligands” value was “inhibition of increased cytokine production by glia in response to LPS (IC50=820±30 nM) and other TLR ligands”. The “LPS-induced IL-1β levels in brain cortex” value in [5] is “in vivo suppression of increased brain levels of IL-1β after oral administration”.

Values taken from patent publication US11149020B2, “MAP kinase modulators and uses thereof” (The Trustees of Columbia University in the City of New York, priority 2013, dated 2021).
